Tests used:
[1] = system: subject diagnosed with a sinus infection; test: Treatment of sinusitis in a subject; format: in vivo; settings: nasal spray device described herein, effective dose 2× daily in each naris
Description: A subject is admitted to a clinic for nasal congestion, nasal inflammation, facial pain (e.g., pain around the eyes, cheeks, nose and forehead). The subject is diagnosed with a sinus infection. The subject is prescribed a beclomethasone dipropionate composition in a nasal spray device described herein. The subject administers the nasal spray in an effective dose 2× daily in each naris. The nasal spray is characterized by a spray containing a D50 of about 15 μm to about 24 μm, a D90 of from about 30 μm to about 50 μm and where less than about 3% of the droplets in the plume of a spray have a size of less than about 10 μm.

[2] = system: subject diagnosed with allergic rhinitis; test: Treatment of allergic rhinitis in a subject; format: in vivo; settings: nasal spray device described herein, effective dose 1× daily in each naris
Description: A subject is admitted to a clinic for nasal congestion, sneezing, itchy eyes, and watery eyes. The subject is diagnosed with allergic rhinitis. The subject is prescribed a fluticasone propionate composition in a nasal spray device described herein. The subject administers the nasal spray in an effective dose 1× daily in each naris. The nasal spray is characterized by a spray containing a D50 of about 15 μm to about 24 μm, a D90 of from about 30 μm to about 50 μm, and where less than about 3% of the droplets in the plume of a spray have a size of less than about 10 μm.

For `CCC(=O)OCC(=O)[C@@]1(OC(=O)CC)[C@@H](C)C[C@H]2[C@@H]3CCC4=CC(=O)C=C[C@]4(C)[C@@]3(Cl)[C@@H](O)C[C@@]21C` [beclomethasone dipropionate], the “symptoms of the sinus infection (pain, nasal inflammation and congestion) after administration” value [1] was “reduced symptoms”.
In the case of `CCC(=O)O[C@]1(C(=O)SCF)[C@H](C)C[C@H]2[C@@H]3C[C@H](F)C4=CC(=O)C=C[C@]4(C)[C@@]3(F)[C@@H](O)C[C@@]21C` [fluticasone propionate], the “symptoms of allergic rhinitis (sneezing, itchy eyes, nasal congestion, watery eyes) after administration” value [2] is reported as “reduced symptoms”.

Source: US20240423907A1, “Improved Nasal Administration of Pharmaceutical Formulations” (Cyrano Therapeutics, Inc., priority 2022, published 2024)
